pIC50, pKd: −log10 of the molar value.
Legend:
[1] = Tmax in rat at 10 mg/kg, po; assay type: ADME, organism-based; conditions: in vivo
[2] = Cmax in rat at 10 mg/kg, po; assay type: ADME, organism-based; design: dose 10 mg/kg, route po; conditions: in vivo
SR [3] = experiment: Antiproliferative activity against human SR cells not addicted to FLT3 ITD mutant assessed as inhibition of cell growth; assay type: functional
[4] = target: CDK6/cyclin D1 (Homo sapiens) (UniProt P24385+Q00534); experiment: Inhibition of CDK6/Cyclin D1 (unknown origin); assay type: protein-complex assay; conditions: concentration not given here
[5] = target: Receptor-type tyrosine-protein kinase FLT3 (Homo sapiens, UniProt P36888, D835H); experiment: Binding affinity to FLT3 D835H mutant (unknown origin)
HL-60 = experiment: Antiproliferative activity against human HL-60 cells expressing low level wild type FLT3 assessed as inhibition of cell growth; assay type: functional, cell-based
U-937 = experiment: Antiproliferative activity against human U-937 cells expressing low level wild type FLT3 assessed as inhibition of cell growth; assay type: functional, cell-based
[6] = Tmax in Beagle dog at […], po; assay type: ADME, organism-based, Canis lupus familiaris; conditions: in vivo, dose 1.5 mg/kg
BaF3 [7] = experiment: cells; assay type: functional, cell-based; conditions: Mus musculus, BaF3, 72 h
Description: Antiproliferative activity against mouse BaF3 cells harboring FLT3 ITD/F691L mutant assessed as inhibition of cell growth incubated for 72 hrs

LOX IMVI = experiment: Antiproliferative activity against human LOX IMVI cells assessed as inhibition of cell growth; assay type: functional
[8] = target: Cyclin-dependent kinase 6 (Homo sapiens, UniProt Q00534); experiment: Inhibition of human CDK6 pretreated for 20 mins followed by [gamma-33P]-ATP addition and measured after 120 mins in presence of 10 uM ATP by radiometric Hot-SpotSM Kinase assay
Chain of Cyclin-dependent kinase 6 (Q00534 whole entry): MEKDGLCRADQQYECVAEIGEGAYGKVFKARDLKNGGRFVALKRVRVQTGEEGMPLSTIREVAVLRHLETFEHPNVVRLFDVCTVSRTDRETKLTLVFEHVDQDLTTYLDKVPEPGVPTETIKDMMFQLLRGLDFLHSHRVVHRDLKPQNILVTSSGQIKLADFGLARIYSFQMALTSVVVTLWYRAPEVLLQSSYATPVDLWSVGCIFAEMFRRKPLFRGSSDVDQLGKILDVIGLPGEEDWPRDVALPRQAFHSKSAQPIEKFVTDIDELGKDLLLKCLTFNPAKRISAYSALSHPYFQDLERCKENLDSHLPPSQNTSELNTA

[9] = target: Receptor-type tyrosine-protein kinase FLT3 (Homo sapiens, UniProt P36888, ITD); experiment: Binding affinity to FLT3 ITD mutant (unknown origin)
SR [10] = experiment: Antiproliferative activity against human SR cells assessed as inhibition of cell growth; assay type: functional
[11] = Half life in Beagle dog at […], po; assay type: ADME, organism-based, Canis lupus familiaris; conditions: in vivo, dose 1.5 mg/kg
THP-1 = experiment: Antiproliferative activity against human THP-1 cells expressing wild type FLT3 assessed as inhibition of cell growth; assay type: functional, cell-based
K562 = experiment: Antiproliferative activity against human K562 cells deficit of oncogenic FLT3 assessed as inhibition of cell growth; assay type: functional, cell-based
[12] = target: Receptor-type tyrosine-protein kinase FLT3 (Homo sapiens) (UniProt P36888); experiment: Inhibition of FLT3 (unknown origin); conditions: concentration not given here
[13] = target: Receptor-type tyrosine-protein kinase FLT3 (Homo sapiens, UniProt P36888, D835Y); experiment: Binding affinity to FLT3 D835Y mutant (unknown origin)
MV4-11 = experiment: Antiproliferative activity against human MV4-11 cells harboring FLT3 ITD mutant assessed as inhibition of cell growth incubated for 72 hrs by CellTiter-Glo luminescent assay; assay type: functional, cell-based; conditions: MV4-11, 72 h
NCI-H460 = experiment: Antiproliferative activity against human NCI-H460 cells assessed as inhibition of cell growth; assay type: functional
BaF3 [14] = experiment: Antiproliferative activity against mouse BaF3 cells harboring FLT3 D835V mutant assessed as inhibition of cell growth incubated for 72 hrs; assay type: functional, cell-based; conditions: BaF3, 72 h
KM12 = experiment: Antiproliferative activity against human KM12 cells assessed as inhibition of cell growth; assay type: functional
ACHN = experiment: Antiproliferative activity against human ACHN cells assessed as inhibition of cell growth; assay type: functional
[15] = Half life in rat at 10 mg/kg, po; assay type: ADME, organism-based; conditions: in vivo
[16] = Clearance in human liver microsomes measured per mg protein by LC-MS/MS analysis; assay type: ADME, Microsome; conditions: read-out: CLH

O=C(Nc1ccc(N2CCNCC2)cc1)c1n[nH]cc1Nc1cc(Oc2ccccc2)ncn1
Tmax [1]: 4 h | Cmax [2]: 144 ng/mL | GI50 (SR [3]): 300 nM | inhibition [4]: 68.8% | pKd [5]: 7.31 | pIC50 (HL-60): 6.01 | pIC50 (U-937): 6.16 | Tmax [6]: 1.67 h | pIC50 (BaF3 [7]): 7.02 | GI50 (LOX IMVI): < 1000 nM | pIC50 [8]: 6.92 | pKd [9]: 7.74 | GI50 (SR [10]): < 1000 nM | half-life [11]: 11.1 h | pIC50 (THP-1): 6.04 | pIC50 (K562): 6.24 | inhibition [12]: 99.6% | pKd [13]: 8.15 | pIC50 (MV4-11): 7.82 | GI50 (NCI-H460): < 1000 nM | pIC50 (BaF3 [14]): 7.37 | GI50 (KM12): < 1000 nM | GI50 (ACHN): < 1000 nM | half-life [15]: 3.5 h | microsomal CLint [16]: 7.4 µL/min/mg
